Experimental data from patent US7485651B2, “Compounds with activity on muscarinic receptors” (Acadia Pharmaceuticals, Inc., priority 1998, dated 2009).

Legend:
[1] = target: T1, α-adrenergic receptor subtype 2B (Homo sapiens, UniProt P18089); test: Test against other receptors: α-adrenergic 2B; type: cell-based
T1 sequence (P18089 1-450): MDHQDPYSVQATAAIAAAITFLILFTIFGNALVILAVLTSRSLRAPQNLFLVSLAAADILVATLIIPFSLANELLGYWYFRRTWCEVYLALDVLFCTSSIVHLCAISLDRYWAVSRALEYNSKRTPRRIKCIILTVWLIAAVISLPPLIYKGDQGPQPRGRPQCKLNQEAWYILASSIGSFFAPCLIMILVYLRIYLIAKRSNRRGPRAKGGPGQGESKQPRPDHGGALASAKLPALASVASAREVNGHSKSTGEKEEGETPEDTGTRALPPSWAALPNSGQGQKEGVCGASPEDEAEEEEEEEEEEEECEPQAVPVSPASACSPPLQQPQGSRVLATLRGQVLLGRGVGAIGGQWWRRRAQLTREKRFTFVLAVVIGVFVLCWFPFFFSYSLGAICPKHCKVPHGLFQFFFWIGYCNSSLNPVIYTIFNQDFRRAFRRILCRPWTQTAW

m2 receptor = target: T2, m2 receptor (Homo sapiens, UniProt P08172); test: NIH 3T3 cells transfected with m2 muscarinic receptor and Gq-i5; type: cell-based
T2 construct: expressed in transfected cells; host or cells: NIH 3T3 (ATCC CRL 1658)
T2 sequence (P08172 1-466): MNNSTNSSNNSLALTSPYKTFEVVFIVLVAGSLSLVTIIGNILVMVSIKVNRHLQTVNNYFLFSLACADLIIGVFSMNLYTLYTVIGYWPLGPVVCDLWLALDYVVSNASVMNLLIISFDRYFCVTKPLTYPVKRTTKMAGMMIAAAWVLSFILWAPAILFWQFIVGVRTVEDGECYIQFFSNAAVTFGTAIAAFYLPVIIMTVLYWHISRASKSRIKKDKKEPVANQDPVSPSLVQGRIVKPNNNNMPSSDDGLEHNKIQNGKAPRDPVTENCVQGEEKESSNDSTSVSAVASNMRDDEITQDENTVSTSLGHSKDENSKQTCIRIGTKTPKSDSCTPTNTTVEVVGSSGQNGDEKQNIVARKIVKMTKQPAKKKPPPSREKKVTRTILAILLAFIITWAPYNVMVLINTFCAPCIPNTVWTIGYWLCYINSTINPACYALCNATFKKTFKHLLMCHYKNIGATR
Procedure: Transfection of cells with muscarinic receptor DNAs (general procedure) NIH 3T3 cells (available from the American Type Culture Collection as ATCC CRL 1658) were grown at 37° C. in a humidified atmosphere (5% CO2) incubator in Dulbecco's modified Eagle's medium (DMEM) supplemented with 4.5 g/l glucose, 4 mM glutamine, 50 units/m1 penicillin, 50 units/m1 streptomycin (available from Advanced Biotechnologies, Inc., Gaithersburg, Md.) and 10% calf serum (available from Sigma, St. Louis, […].). The cells were treated with trypsin-EDTA, spun down and plated at 2×10^6 per 15 cm dish in 20 m1 of DMEM containing 10% calf serum.
The m1-m5 muscarinic receptor subtypes were cloned substantially as described by Bonner et al., Science 237, 1987, p. 527, and Bonner et al., Neuron 1, 1988, p. 403. For the m2 and m4 receptors, the cells were co-transfected with DNA encoding a chimera between the Gq protein and the five carboxy-terminal amino acids of the Gi protein (the Gq-i5 construct is described by Conklin et al., Nature 363, 1993, p.274).
On day one, the cells were transfected using the Superfect transfection reagent (available from Qiagen, Valencia, Calif.) in accordance with the manufacturer's instructions. […]

Compound: CCCCC1CCN(CCCC(=O)c2ccccc2C)CC1 [Compound A, 4-n-Butyl-1-[4-(2-methylphenyl)-4-oxo-1-butyl]piperidine]
- agonist activity [1]: no significant activity
- inhibition of receptor responses (antagonist experiments) [1]: did not inhibit
- antagonism of carbachol-induced responses (m2 receptor): not an antagonist
